Experimental data reported in paper PMC11767297, “6-Bromoindole- and 6-Bromoindazole-Based Inhibitors of Bacterial Cystathionine γ-Lyase Containing 3-Aminothiophene-2-Carboxylate Moiety” (Molecules, 2025).
Like-named read-outs stand apart in the source and are kept apart here.

Experiments:
[1] = molecular target: bCSE; conditions: cited from earlier work
[2] = test system: B. subtilis 168 strain; test: Kanamycin A-potentiating activity, growth curves; format: cell-based, Bacillus subtilis; conditions: potentiator concentration in the presence of 0.25 µg Km (MICKm = 2 µg/mL); potentiator varied with an interval of 10 μM
Procedure: The potentiating properties and minimum inhibitory concentration (MIC) were assessed similarly to the testing with gentamicin, and additionally, the previously reported MNS1 was used for comparison (Figure 3). The MIC of kanamycin A for B. subtilis cells is 2 μg/mL. […] A lower cytotoxic effect on HEK273T culture (Table 1) allows us to conclude that MNS3 is the hit compound in the series (the experimental curves for CC50 estimation via the MTT test are given in the Supplementary Information File).
(§1) Gentamicin-potentiating activity testing of the compounds in B. subtilis. The growth curves of B. subtilis were obtained with a Bioscreen C automated growth curve analysis system (Oy Growth Curves Ab, Finland, Helsinki). The B. subtilis strain 168 was grown overnight in LB at 37 °C and diluted with fresh medium (1:100) containing the antibiotic and a test compound as specified in the text and figure captions. Aliquots (150 μL) of each mixture were added into plate wells in triplicate and incubated with continuous agitation at 37 °C. The optical density at 600 nm (OD600) was recorded automatically for 24 h. The results were averaged over three replicate experiments to plot the time dependences of bacterial growth.
Figure 3 Determination of the potentiating properties of compounds.

[3] = MTT test, cytotoxicity; format: cell-based; conditions: human, HEK293T cells; MTT test, 72 h; concentration required to inhibit 50% cell culture growth; read-out: CC50 of compounds (HEK273T)
Procedure: (§2) HEK293T cells were grown in the DMEM:F12 (2:1) medium supplemented with 10% FBS (BioSera, Cholet, France), 2 mM L-glutamine, 100 U/mL penicillin and 100 μg/mL streptomycin in the presence of 5% CO2 at 37 °C. Cells were re-seeded every three days at a ratio of 1:3 or 1:5.
(§3) Stock solutions were diluted in DMSO (BioReagent of molecular biology grade, Sigma, St. Louis, MO, USA), and the final DMSO concentration was 1%. After 24 h (30–40% monolayer), the solutions of the studied compounds diluted at different concentrations were introduced to the culture medium. After the incubation at 37 °C in 5% CO2 for 72 h, a freshly prepared solution of thiazolyl blue tetrazolium bromide at a final concentration of 0.4 mg/mL was added to each well of the plate. Incubation was performed at +37 °C for 2 h. The medium containing unreacted MTT was removed via aspiration. The formed formazan dye was dissolved in 100 µL of isopropanol added to each well of the plate. The result of the analysis was evaluated using a Tecan Spark spectrophotometer (absorbance at 544 nm).

[4] = test system: B. subtilis 168 strain; design: method as in PMID 39970094; conditions: parent MNS1, in the presence of 0.1 µg Gm; previously known data for gentamicin potentiation; cited from earlier work
[5] = molecular target: hCSE; design: method as in PMID 34112687, PMID 37110802, doi:10.1016/j.mencom.2024.02.030, PMID 39970094, PMID 38771206; conditions: Figure 1; cited from earlier work
[6] = test system: B. subtilis 168 strain; test: Gentamicin-potentiating activity, growth curves (Bioscreen C); format: cell-based, Bacillus subtilis; conditions: for MIC with Gm (B. subtilis): potentiator concentration in the presence of 0.1 µg Gm (0.1 MIC; MICGm = 1 µg/mL), potentiator varied with an interval of 10 μM
Procedure: We selected the B. subtilis 168 strain as the model micro-organism to determine the potentiating properties of the new compounds. The active center of the proposed target protein, cystathionine γ-lyase, has a conservative structure for a wide range of micro-organisms, including pathogens; thus, B. subtilis can be used as a less toxic model object containing the CGL enzyme for testing. The efficiency of CGL inhibitors was assessed by the standard minimum inhibitory concentration (MIC) assay. The potentiating properties were investigated according to the technique reported previously for NL2 [10]. The MIC of gentamicin for B. subtilis cells is 1 μg/mL, which is consistent with known CLSI breakpoints for the genus Bacillus. […] In addition, we tested the effect of the compounds on the generation of hydrogen sulfide by the B. subtilis cell culture (Figure 2F). […] The latter effect, however, may be attributed to the presence of the sulfur atom in the structure of these inhibitors assuming their possible hydrolysis if not bound to the enzyme in the cellular environment.
as §1
Figure 2 Determination of the potentiating properties of compounds. Representative growth curves of B. subtilis 168 strain in the presence of 0.1 μg/mL gentamicin (Gm) and potentiators: MNS2 (A), MNS3 (B), MNS4 (C), MNS5 (D) and MNS6 (E). The cells were grown at 37 °C with aeration in a Bioscreen C automated growth assay system. The curves represent the mean values of three independent experiments with an error of <5%. Evaluation of hydrogen sulfide production by B. subtilis 168 cells in the presence of the potentiators studied (F): MNS2 (100 µM), MNS3 (90 µM), MNS4 (60 µM), MNS5 (60 µM) and MNS6 (100 µM). The filter paper strips soaked in 2% lead acetate solution show brown staining with PbS salt as a result of H2S evaporation by the bacterial suspension. The numbers indicate H2S production relative to wild-type cells. […]

[7] = test system: hydrogen sulfide production by B. subtilis 168 cells; test: Hydrogen sulfide generation, lead acetate paper strips; format: cell-based, Bacillus subtilis; conditions: B. subtilis cell culture, Figure 2F
Procedure: The generation of hydrogen sulfide in B. subtilis cells was monitored according to the published protocol using lead acetate as a colorimetric sensor [29]. The inner surface of a cell culture flask was equipped above the level of the liquid with a standardized paper strip soaked with 2% aq. Pb(OAc)2. Overnight cultures were diluted with LB (1:50) and incubated at 37 °C under aeration conditions for 16–18 h. The test compounds (MNS1 and NL2) were used at 32 μM; LB without supplements was used as a negative control. Paper strips stained with the formed PbS precipitate were scanned using an AlphaImager gel imaging system (BioTechne, USA, Minneapolis, Minnesota). The results were normalized to the optical density of the culture.
Figure 2 Determination of the potentiating properties of compounds. Representative growth curves of B. subtilis 168 strain in the presence of 0.1 μg/mL gentamicin (Gm) and potentiators: MNS2 (A), MNS3 (B), MNS4 (C), MNS5 (D) and MNS6 (E). The cells were grown at 37 °C with aeration in a Bioscreen C automated growth assay system. The curves represent the mean values of three independent experiments with an error of <5%. Evaluation of hydrogen sulfide production by B. subtilis 168 cells in the presence of the potentiators studied (F): MNS2 (100 µM), MNS3 (90 µM), MNS4 (60 µM), MNS5 (60 µM) and MNS6 (100 µM). The filter paper strips soaked in 2% lead acetate solution show brown staining with PbS salt as a result of H2S evaporation by the bacterial suspension. The numbers indicate H2S production relative to wild-type cells. TEXT PRINTED IN THE PICTURE: (F) MNS2: 100% | (F) MNS3: >120% | (F) MNS4: >120% | (F) MNS5: <35% | (F) MNS6: <35% DOUBTS OF THE COPYIST ABOUT THIS PICTURE: Panel F: the picture prints no measure for the percentages, so they are given without one. / Panel F: the column "Control" (100%) is left out because it is not a substance.

[8] = test system: HEK273T; test: MTT test, cytotoxicity; format: cell-based; conditions: in words, conclusions
Procedure: as §2, §3

[9] = test system: bCSE; design: method as in PMID 34112687, PMID 37110802, doi:10.1016/j.mencom.2024.02.030, PMID 39970094, PMID 38771206; conditions: Figure 1; cited from earlier work
[10] = test system: hCSE; design: method as in PMID 34112687, PMID 37110802, doi:10.1016/j.mencom.2024.02.030, PMID 39970094, PMID 38771206; conditions: Figure 1; cited from earlier work; remark: listed apart in the source
[11] = test system: B. subtilis cells; test: MIC of the antibiotic alone, microdilution method (CLSI); format: cell-based, Bacillus subtilis
Procedure: Standardized MIC was determined using the microdilution method, as recommended by the Clinical and Laboratory Standards Institute (CLSI). […] The B. subtilis inoculate (100 μL) contained 1.0 × 10^6 CFU/mL. The minimum inhibitory concentration (MIC) was defined as the lowest antibiotic concentration that prevented turbidity in the inoculate following incubation at 37 °C for a duration of 24 h. Gentamycin was used at 0.1 μg/mL (10% of MIC) in further experiments.

Question: With `O=C(O)c1ccc(Cn2ccc3ccc(Br)cc32)cc1` [3h] as the compound, how does the Kd ([1]; Figure 1, read-out: KD (bCSE)) read?
Answer: Its Kd is 0.8 ± 0.3 µM.

Question: Which results are given for `Nc1csc(Cn2ccc3ccc(Br)cc32)c1` [MNS1]?
Answer: MIC with Km (B. subtilis) [2]: 100 µM; CC50 at 72 h [3]: 30 µM; MIC with Gm (B. subtilis) [4]: ~50 µM; Kd ([1]; Figure 1, read-out: KD (bCSE)): 0.59 ± 0.04 µM; Kd ([1]; introduction, read-out: binding constant with CGL): ~0.6 µM; Kd [5]: 11.6 ± 0.1 µM

Question: Which results are given for `Nc1cc(Cn2ccc3ccc(Br)cc32)sc1C(=O)[O-].[K+]` [MNS2, Potassium 3-Amino-5-((6-bromo-1H-indol-1-yl)methyl)thiophene-2-carboxylate]?
Answer: inhibition of B. subtilis growth in combinations with gentamicin ([6]; concentration range from 50 to 100 µM): failed to inhibit; rate of hydrogen sulfide generation compared to the control group of cells [7]: enhanced; CC50 at 72 h [3]: 25 µM

Question: With `Nc1cc(Cn2ncc3ccc(Br)cc32)sc1C(=O)[O-].[K+]` [MNS3, Potassium 3-Amino-5-((6-bromo-1H-indazol-1-yl)methyl)thiophene-2-carboxylate] as the compound, how does the “MIC with Gm (B. subtilis)” value [6] read?
Answer: Its value is roughly 90 µM.

Question: What about the “MIC with Km (B. subtilis)” value [2] of the same compound?
Answer: Its value is 90 µM.

Question: What about the “rate of hydrogen sulfide generation compared to the control group of cells” value (from here on “rate … compared to the control group of cells”) [7] of the same compound?
Answer: Its value is “enhanced”.

Question: What about the CC50 at 72 h [3] of the same compound?
Answer: Its CC50 at 72 h is 190 µM.

Question: And the “cytotoxicity in HEK273T” value [8]?
Answer: Its value is “moderate cytotoxicity”.

Question: For `Nc1cc(Cn2cc3ccc(Br)cc3n2)sc1C(=O)[O-].[K+]` [MNS4, Potassium 3-Amino-5-((6-bromo-2H-indazol-2-yl)methyl)thiophene-2-carboxylate], which “MIC with Gm (B. subtilis)” value [6] is on record?
Answer: Its value is roughly 60 µM.

Question: And the “MIC with Km (B. subtilis)” value [2]?
Answer: Its value is 70 µM.

Question: And the CC50 at 72 h [3]?
Answer: Its CC50 at 72 h is 87 µM.

Question: And the “cytotoxicity in HEK273T” value [8]?
Answer: Its value is “moderate cytotoxicity”.

Question: Which “MIC with Gm (B. subtilis)” value [6] does the source give for `Cc1oc(Cn2ncc3ccc(Br)cc32)cc1C(=O)O` [MNS5, 5-((6-Bromo-1H-indazol-1-yl)methyl)-2-methylfuran-3-carboxylic Acid] here?
Answer: The value was roughly 60 µM.

Question: And the “MIC with Km (B. subtilis)” value [2]?
Answer: The value was 100 µM.

Question: And the “rate … compared to the control group of cells” value [7]?
Answer: The value was “significantly reduced”.

Question: And the CC50 at 72 h [3]?
Answer: Its CC50 at 72 h is 250 µM.

Question: With `Cc1oc(Cn2cc3ccc(Br)cc3n2)cc1C(=O)O` [MNS6, 5-((6-Bromo-2H-indazol-2-yl)methyl)-2-methylfuran-3-Carboxylic Acid] as the compound, how does the “rate … compared to the control group of cells” value [7] read?
Answer: The value was “significantly reduced”.

Question: What about the CC50 at 72 h [3] of the same compound?
Answer: The CC50 at 72 h was 260 µM.

Question: Which IC50 [9] does the source give for `O=C(O)CNC(=O)Cn1ccc2ccc(Br)cc21` [NL1] here?
Answer: Its IC50 is 5.8 ± 2.7 µM.

Question: And the IC50 [10]?
Answer: The IC50 was 29.2 ± 2 µM.

Question: For `Cc1oc(Cn2ccc3ccc(Br)cc32)cc1C(=O)O` [NL2], which IC50 [9] is on record?
Answer: Its IC50 is 1.8 ± 0.5 µM.

Question: And the IC50 [10]?
Answer: The IC50 was 25.3 ± 2.6 µM.

Question: What about the Kd ([1]; Figure 1, marked "our data", read-out: KD (bCSE)) of the same compound?
Answer: Its Kd is 1.1 ± 0.3 µM.

Question: With `O=C(O)c1cc(Cn2ccc3ccc(-c4cc5cccc(Cl)c5s4)cc32)n[nH]1` [NL3] as the compound, how does the IC50 [9] read?
Answer: Its IC50 is 0.7 ± 0.2 µM.

Question: And the IC50 [10]?
Answer: Its IC50 is 3.4 ± 0.8 µM.

Question: Which MIC ([11]; Bacillus subtilis, 37 °C, 24 h, read-out: MIC of gentamicin for B. subtilis cells) does the source give for `CNC(C)C1CCC(N)C(OC2C(N)CC(N)C(OC3OCC(C)(O)C(NC)C3O)C2O)O1` (stereo not shown) [gentamicin] here?
Answer: The MIC was 1 mg/L.

Question: With kanamycin A as the compound, how does the “MIC of kanamycin A for B. subtilis cells” value [11] read?
Answer: The value was 2 mg/L.
